Target: Vascular endothelial growth factor receptor 2 (Homo sapiens, UniProt P35968)
Assay: VEGFR2 Kinase Assay: Biochemical KDR kinase assays were performed in 96 well microtiter plates that were coated overnight with 75 ug/well of poly-Glu-Tyr (4:1) in 10 mM Phosphate Buffered Saline (PBS), pH 7.4. The coated plates were washed with 2 mls per well PBS+0.05% Tween-20 (PBS-T), blocked by incubation with PBS containing 1% BSA, then washed with 2 mls per well PBS-T prior to starting the reaction. Reactions were carried out in 100 uL reaction volumes containing 2.7 uM ATP in kinase buffer (50 mM Hepes buffer pH 7.4, 20 mM MgCl2, 0.1 mM MnCl2 and 0.2 mM Na3VO4). Test compounds were reconstituted in 100% DMSO and added to the reaction to give a final DMSO concentration of 5%. Reactions were initiated by the addition 20 ul per well of kinase buffer containing 200-300 ng purified cytoplasmic domain KDR protein (BPS Bioscience, San Diego, Calif.). Following a 15 minute incubation at 30° C., the reactions were washed 2 mls per well PBS-T. 100 ul of a monoclonal anti-phosphotyrosine antibody-peroxidase conjugate diluted 1:10,000 in PBS-T was added to the wells for 30 minutes. Following a 2 mls per well wash with PBS-Tween-20, 100 ul of 0-Phenylenediamine Dihydrochloride in phosphate-citrate buffer, containing urea hydrogen peroxide, was added to the wells for 7-10 minutes as a colorimetric substrate for the peroxidase. […]

Sequence of Vascular endothelial growth factor receptor 2 (P35968 whole entry, the tested form may be a part): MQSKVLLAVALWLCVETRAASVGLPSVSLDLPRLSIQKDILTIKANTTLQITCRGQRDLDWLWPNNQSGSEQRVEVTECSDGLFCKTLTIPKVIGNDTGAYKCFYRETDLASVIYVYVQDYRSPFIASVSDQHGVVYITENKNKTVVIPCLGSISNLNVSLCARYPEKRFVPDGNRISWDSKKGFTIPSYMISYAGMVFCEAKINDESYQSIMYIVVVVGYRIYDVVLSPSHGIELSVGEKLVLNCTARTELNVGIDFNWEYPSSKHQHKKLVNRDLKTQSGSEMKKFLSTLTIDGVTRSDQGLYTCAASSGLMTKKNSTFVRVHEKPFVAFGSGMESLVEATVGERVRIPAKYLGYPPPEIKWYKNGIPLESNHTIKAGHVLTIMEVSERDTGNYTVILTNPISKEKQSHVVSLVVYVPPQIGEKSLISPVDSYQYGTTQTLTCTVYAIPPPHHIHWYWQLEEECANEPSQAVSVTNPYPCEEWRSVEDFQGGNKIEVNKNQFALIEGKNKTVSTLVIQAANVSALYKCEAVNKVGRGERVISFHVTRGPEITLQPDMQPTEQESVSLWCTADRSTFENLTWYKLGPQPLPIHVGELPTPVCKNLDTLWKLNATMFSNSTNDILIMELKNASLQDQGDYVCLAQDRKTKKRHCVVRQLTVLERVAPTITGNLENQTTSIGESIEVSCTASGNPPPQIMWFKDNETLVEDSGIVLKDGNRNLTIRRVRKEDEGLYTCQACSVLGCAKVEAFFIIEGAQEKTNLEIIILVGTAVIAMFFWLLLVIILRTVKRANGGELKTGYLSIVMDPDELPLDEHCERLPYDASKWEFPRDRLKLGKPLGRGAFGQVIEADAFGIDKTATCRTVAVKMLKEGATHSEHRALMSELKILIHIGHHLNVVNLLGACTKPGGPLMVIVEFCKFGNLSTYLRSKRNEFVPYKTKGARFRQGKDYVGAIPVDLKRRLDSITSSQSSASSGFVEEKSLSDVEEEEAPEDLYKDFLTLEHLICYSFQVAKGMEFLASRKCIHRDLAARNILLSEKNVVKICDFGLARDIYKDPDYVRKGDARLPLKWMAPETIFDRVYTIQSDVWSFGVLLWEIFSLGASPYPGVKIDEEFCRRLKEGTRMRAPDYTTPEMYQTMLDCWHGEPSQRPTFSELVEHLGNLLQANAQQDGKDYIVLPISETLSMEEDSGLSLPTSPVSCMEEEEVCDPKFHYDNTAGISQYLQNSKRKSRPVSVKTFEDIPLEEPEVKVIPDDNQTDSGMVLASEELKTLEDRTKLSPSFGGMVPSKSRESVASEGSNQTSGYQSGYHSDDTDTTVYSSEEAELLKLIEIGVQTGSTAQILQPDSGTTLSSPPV

IC50: 11 nM
Compound: O=C(c1cccnc1)N1CCc2nc(Nc3ccsc3)ncc2C1
